Values of other authors, collected in patent publication US20200163955A1, “STERILE COMPOSITIONS OF INDACATEROL SUITABLE FOR NEBULIZATION” (GLENMARK SPECIALTY S.A., priority 2018, published 2020).

Conditions: water

## CCc1cc2c(cc1CC)CC(NC[C@H](O)c1ccc(O)c3[nH]c(=O)ccc13)C2 [Indacaterol, 5-[(1R)-2-[(5,6-diethyl-2,3-dihydro-1H-inden-2-yl)amino]-1-hydroxyethyl]-8-hydroxy-1H-quinolin-2-one]
  aqueous solubility: very slightly soluble in water
